This passage reports Colon length and IL-1 beta conc. results from US20170368089A1, “COMPOSITION FOR PREVENTING OR TREATING COLITIS” (UNIVERSITY-INDUSTRY COOPERATION GROUP OF KYUNG HEE …, priority 2012, published 2017).

For assay [1], the system named is model animal with acute colitis induced by TNBS. The assay is described as follows: Acute colitis induced by TNBS in mice, appearance analysis of colon (colon length, macroscopic score), first experiment. It counts as in vivo, ICR male mice. The following applies: Table 3 (group 2); TNBS-treated mice, 10 mg/kg orally, 3 days. As for the experimental part:
4-week ICR male mice (24 to 27 g) were purchased from OrientBio. All the mice were bred under the controlled environmental conditions of 50±10% of humidity and 25±2° C. of temperature, and the lighting was repeatedly on for 12 hours and off for 12 hours. A feed for a standard experiment (Samyang, Korea) was used as a feed, and water was freely taken. For all the experiments, one group was 6 mice. […] Meanwhile, 0.1 ml of normal saline solution was orally administered to the normal group. Since then, from the next day, the sample dissolved in normal saline solution was orally administered in the volume that was decided in advance one time a day for 3 days. At the next day after completing the sample administration, the experimental animals were suffocated to death with carbon dioxide, the colon from appendix to the region just before the anus was removed from the colon region. The scores about the removed colons were estimated by observing the appearances and the lengths of the colons according to the following criteria (Hollenbach, and the like, the criteria about the level of colon in 2005) as listed in Table 1. […] In addition, some of the content in the colon was collected in order to analyze the rumen microorganisms, and then, was stored in a freezer of −80° C. From the tissue of colon, the content in the colon was completely removed and then the tissue of colon was washed with normal saline solution. Since then, some of the tissue was fixed with 4% formaldehyde fixing solution in order to be used as a sample for a histopathological examination, and the rest was stored in a freezer of −80° C. for a molecular biological analysis.

Another assay relates to IL-1 beta. The assay is described as follows: IL-1 beta expression in colon tissue (ELISA), TNBS colitis, second experiment. It counts as in vivo, ICR male mice. The following applies: Table 9, extract-based samples, TNBS-treated mice, 10 mg/kg orally, 3 days. As for the experimental part:
Among the experimental groups, one group was set as a normal group, and for the experimental animals in other groups, colitis was induced with 2,4,6-trinitrobenzenesulfonic acid (TNBS). In detail, after lightly anesthetizing the experimental animals with ether, 0.1 ml of the solution prepared by mixing […] of 2,4,6-Trinitrobenzene sulfonic acid (NBS) solution with 50% ethanol was injected into the colon through the anus using a syringe having 1 ml volume and oval point, respectively; and then, the syringe was vertically picked up, and then, maintained for 30 seconds to induce the inflammation. Meanwhile, 0.1 ml of normal saline solution was orally administered to the normal group. Since then, from the next day, the sample dissolved in normal saline solution was orally administered in the volume that was decided in advance one time a day for 3 days. […]
250 μl of RIPA butter including protease inhibitor cocktail was added to 100 mg of the colon tissue of experimental animal, and then, the colon tissue was homogenized. […] While the supernatant was stored at −80° C., the expression amounts of IL-1 beta, IL-6, and TNF-alpha were measured using a 96-well ELISA plate kits (Pierce Biotechology, Inc., Rockford, Ill., USA).
In general terms: ELISA stands for enzyme-linked immunosorbent assay.

On to `Nc1ccc(O)c(C(=O)O)c1` [mesalazine, Mesalazine], for which the Colon length in assay [1] stood at 7.1 ± 0.46 cm. In the assay on IL-1 beta, this compound came in with an IL-1 beta conc. of 16.30 ± 3.38 pg/mg.
